According to patent US20250051347A1, “BIFUNCTIONAL CHIMERIC HETEROCYCLIC COMPOUND AND USE THEREOF AS ANDROGEN RECEPTOR DEGRADER” (Hinova Pharmaceuticals, Inc., priority 2021, published 2025):

How the values were obtained:
[1] = target: T1, androgen receptor (AR) splicing variant AR-v7 (Homo sapiens, UniProt P10275); test: Degradation activity on androgen receptor splicing variant AR-v7 in 22RV1 cells (ELISA); assay type: cell-based; conditions: AR-v7 degradation in 22RV1 cells, 48 h, class symbols
T1 construct: The degradation activity of compounds on AR-v7 in 22RV1 cells; host or cells: 22RV1 cells
T1 sequence (P10275 1-644 isoform P10275-3): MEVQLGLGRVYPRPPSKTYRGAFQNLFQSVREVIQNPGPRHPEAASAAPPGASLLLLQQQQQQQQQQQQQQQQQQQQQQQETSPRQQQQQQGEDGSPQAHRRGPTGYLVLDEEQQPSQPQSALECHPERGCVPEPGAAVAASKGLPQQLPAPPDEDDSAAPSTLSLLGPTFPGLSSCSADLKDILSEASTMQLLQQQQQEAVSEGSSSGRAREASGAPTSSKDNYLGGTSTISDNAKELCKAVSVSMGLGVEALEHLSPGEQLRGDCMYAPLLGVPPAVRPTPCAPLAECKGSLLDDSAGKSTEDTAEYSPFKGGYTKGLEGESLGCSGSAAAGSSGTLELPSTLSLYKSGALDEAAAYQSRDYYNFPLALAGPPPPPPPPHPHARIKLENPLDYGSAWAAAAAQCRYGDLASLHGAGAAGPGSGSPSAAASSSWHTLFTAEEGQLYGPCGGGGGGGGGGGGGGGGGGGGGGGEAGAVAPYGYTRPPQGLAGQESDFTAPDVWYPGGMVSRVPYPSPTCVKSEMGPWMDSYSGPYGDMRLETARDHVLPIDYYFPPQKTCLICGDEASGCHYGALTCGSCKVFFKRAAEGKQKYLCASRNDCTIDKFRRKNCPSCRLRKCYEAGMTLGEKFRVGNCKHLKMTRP

[2] = Pharmacokinetics in mice (plasma exposure after oral administration); assay type: in vivo; conditions: mouse, ICR mice, oral (i.g.) 3 mg/kg, read-out: After oral administration of 3 mg/kg, mouse plasma exposure AUCinf
[3] = system: 22RV1 cells; conditions: Homo sapiens, 22Rv1, 144 h, read-out: 22RV1 IC50 (nM), 22RV1 cells, 6 days culture, CCK-8, OD 450 nm

| DC50 [1] [µM] | AUC(0-inf) [2] [µg·h/mL] | IC50 [3] [nM] | SMILES |
| --- | --- | --- | --- |
| < 0.01 | 5 to 30 | 9 | C=CC(c1ccc(Oc2ccc(-n3nccn3)nn2)cc1)c1ccc(O[C@H]2C[C@H](Nc3ccc4c(c3)C(=O)N(C3CCC(=O)NC3=O)C4=O)C2)cc1 (stereo partly drawn) [Example 371, 5-(((1r,3r)-3-(4-(1-(4-((6-(2H-1,2,3-triazole-2-yl)pyridazine-3-yl)oxy)phenyl)allyl)phenoxy)cyclobutyl)amino)-2-(2,6-dioxopiperidin-3-yl)isoindolin-1,3-dione] |
| < 0.01 | 5 to 30 | 8 | C=CC(c1ccc(Oc2cnc(-n3nccn3)nc2)cc1)c1ccc(O[C@H]2C[C@H](Nc3ccc4c(c3)C(=O)N(C3CCC(=O)NC3=O)C4=O)C2)cc1 (stereo partly drawn) [Example 372, 5-(((1r,3r)-3-(4-(1-(4-((2-(2H-1,2,3-triazole-2-yl)pyrimidin-5-yl)oxy)phenyl)allyl)phenoxy)cyclobutyl)amino)-2-(2,6-dioxopiperidin-3-yl)isoindolin-1,3-dione] |
| < 0.01 | 5 to 30 | 13 | C=CC(c1ccc(Oc2cnc(-c3nnc(C)o3)nc2)cc1)c1ccc(O[C@H]2C[C@H](Nc3ccc4c(c3)C(=O)N(C3CCC(=O)NC3=O)C4=O)C2)cc1 (stereo partly drawn) [Example 373, 2-(2,6-dioxopiperidin-3-yl)-5-(((1r,3r)-3-(4-(1-(4-((2-(5-methyl-1,3,4-oxadiazol-2-yl)pyrimidin-5-yl)oxy)phenyl)allyl)phenoxy)cyclobutyl)amino)isoindolin-1,3-dione] |
| < 0.01 | 5 to 30 | 12 | CC(O)c1ncc(Oc2ccc(C3(c4ccc(O[C@H]5C[C@H](Nc6ccc7c(c6)C(=O)N(C6CCC(=O)NC6=O)C7=O)C5)cc4)CC3)cc2)cn1 (stereo partly drawn) [Example 377, 2-(2,6-dioxopiperidin-3-yl)-5-(((1r,3r)-3-(4-(1-(4-((2-(1-hydroxylethyl)pyrimidin-5-yl)oxy)phenyl)cyclopropyl)phenoxy)cyclobutyl)amino)isoindolin-1,3-dione] |
| < 0.01 | 5 to 30 | 3 | Cc1nnc(-c2cccc(Oc3ccc(C(C)(C)c4ccc(O[C@H]5C[C@H](Nc6ccc7c(c6)C(=O)N(C6CCC(=O)NC6=O)C7=O)C5)cc4)cc3)n2)o1 (stereo partly drawn) [Example 423] |
| < 0.01 | 1 to 5 | 7 | Cc1noc(-c2nccc(Oc3ccc(C(C)(C)c4ccc(O[C@H]5C[C@H](Nc6ccc7c(c6)C(=O)N(C6CCC(=O)NC6=O)C7=O)C5)cc4)cc3)n2)n1 (stereo partly drawn) [Example 426] |
| 0.011 to 0.1 | 5 to 30 | 9 | CC(C)(c1ccc(OCc2ccnc(-n3nccn3)n2)cc1)c1ccc(O[C@H]2C[C@@H](Nc3ccc4c(c3)C(=O)N(C3CCC(=O)NC3=O)C4=O)C2)cc1 (stereo partly drawn) [Example 446, 5-(((1s,3s)-3-(4-(2-(4-((2-(2H-1,2,3-triazol-2-yl)pyrimidin-4-yl)methoxy)phenyl)propan-2-yl)phenoxy)cyclobutyl)amino)-2-(2,6-dioxopiperidin-3-yl)isoindolin-1,3-dione] |
| < 0.01 | 1 to 5 | 5 | CC1(O)CN(c2nccc(COc3ccc(C(C)(C)c4ccc(O[C@H]5C[C@@H](Nc6ccc7c(c6)C(=O)N(C6CCC(=O)NC6=O)C7=O)C5)cc4)cc3)n2)C1 (stereo partly drawn) [Example 455] |
| < 0.01 | 5 to 30 | 12 | CN(C)[C@@H]1CCN(c2nccc(COc3ccc(C(C)(C)c4ccc(O[C@H]5C[C@@H](Nc6ccc7c(c6)C(=O)N(C6CCC(=O)NC6=O)C7=O)C5)cc4)cc3)n2)C1 (stereo partly drawn) [Example 456] |
| < 0.01 | 0.1 to 1 | 4 | CC(C)(c1ccc(OCc2ccnc(-c3nnco3)n2)cc1)c1ccc(O[C@H]2C[C@@H](Nc3ccc4c(c3)C(=O)N(C3CCC(=O)NC3=O)C4=O)C2)cc1 (stereo partly drawn) [Example 464, 5-(((1s,3s)-3-(4-(2-(4-((2-(1,3,4-oxadiazol-2-yl)pyrimidin-4-yl)methoxy)phenyl)propan-2-yl)phenoxy)cyclobutyl)amino)-2-(2,6-dioxopiperidin-3-yl)isoindolin-1,3-dione] |
| < 0.01 | 5 to 30 | 2 | Cc1nnc(-c2ncc(Oc3ccc(C4(c5ccc(O[C@H]6C[C@H](Nc7ccc8c(c7)C(=O)N(C7CCC(=O)NC7=O)C8=O)C6)cc5)CCCC4)cc3)cn2)o1 (stereo partly drawn) [Example 483] |
| < 0.01 | 1 to 5 | 10 | CC(C)(c1ccc(Oc2cc(F)cnc2-n2ccnn2)cc1)c1ccc(O[C@H]2C[C@H](Nc3ccc4c(c3)C(=O)N(C3CCC(=O)NC3=O)C4=O)C2)cc1 (stereo partly drawn) [Example 516] |
| < 0.01 | 5 to 30 | 2 | CC(O)c1ncc(Oc2ccc(C3(c4ccc(O[C@H]5C[C@H](Nc6ccc7c(c6)C(=O)N(C6CCC(=O)NC6=O)C7=O)C5)cc4)CCCCC3)cc2)cn1 (stereo partly drawn) [Example 528] |
| < 0.01 | 5 to 30 | 15 | CCC(CC)(c1ccc(Oc2cnc(-c3noc(C)n3)nc2)cc1)c1ccc(O[C@H]2C[C@@H](Nc3ccc4c(c3)C(=O)N(C3CCC(=O)NC3=O)C4=O)C2)cc1 (stereo partly drawn) [Example 553] |
| < 0.01 | 1 to 5 | 4 | CC(C)(c1ccc(Oc2cnc(-n3ccnn3)cn2)cc1)c1ccc(O[C@H]2C[C@H](Nc3ccc4c(c3)C(=O)N(C3CCC(=O)NC3=O)C4=O)C2)cc1 (stereo partly drawn) [Example 584] |
| < 0.01 | 5 to 30 | 13 | Cc1nc(-c2cc(Oc3ccc(C(C)(C)c4ccc(O[C@H]5C[C@H](Nc6ccc7c(c6)C(=O)N(C6CCC(=O)NC6=O)C7=O)C5)cc4)cc3)ncn2)no1 (stereo partly drawn) [Example 588] |

| SMILES | DC50 [1] [µM] | AUC(0-inf) [2] [µg·h/mL] | IC50 [3] [nM] |
| --- | --- | --- | --- |
| CC(C)(c1ccc(CN2CC(Nc3ccc4c(c3)C(=O)N(C3CCC(=O)NC3=O)C4=O)C2)cc1)c1ccc(OCc2ccnc(N3CC4(COC4)C3)n2)cc1 (stereo not drawn) [Example 502] | < 0.01 | 1 to 5 | 12 |
